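All cell lines were grown in 96-well plates and treated with compound for 48 hours. TGI is the concentration that stops growth completely.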
Legend:
Test in all cases: growth of human tumour cells (NCI), 48 h
UACC-62 melanoma = system: UACC-62 melanoma
COLO 205 colon = system: COLO 205 colon
UO-31 renal = system: UO-31 renal
T-47D breast = system: T-47D breast
M14 melanoma = system: M14 melanoma
SK-OV-3 ovarian = system: SK-OV-3 ovarian
TK-10 renal = system: TK-10 renal
SK-MEL-2 melanoma = system: SK-MEL-2 melanoma
LOX IMVI melanoma = system: LOX IMVI melanoma
HT29 colon = system: HT29 colon
K-562 leukemia = system: K-562 leukemia
PC-3 prostate = system: PC-3 prostate
NCI-H522 lung = system: NCI-H522 lung
OVCAR-4 ovarian = system: OVCAR-4 ovarian
MDA-MB-231 breast = system: MDA-MB-231 breast
MOLT-4 leukemia = system: MOLT-4 leukemia
BT-549 breast = system: BT-549 breast
SW-620 colon = system: SW-620 colon
SF-268 CNS = system: SF-268 CNS
MCF7 breast = system: MCF7 breast
NCI/ADR-RES ovarian = system: NCI/ADR-RES ovarian
HCT-15 colon = system: HCT-15 colon
DU-145 prostate = system: DU-145 prostate
OVCAR-3 ovarian = system: OVCAR-3 ovarian
UACC-257 melanoma = system: UACC-257 melanoma
RXF 393 renal = system: RXF 393 renal
OVCAR-5 ovarian = system: OVCAR-5 ovarian
SNB-75 CNS = system: SNB-75 CNS
NCI-H23 lung = system: NCI-H23 lung
HCT-116 colon = system: HCT-116 colon
HOP-62 NSCLC = system: HOP-62 NSCLC
CCRF-CEM leukemia = system: CCRF-CEM leukemia
SNB-19 CNS = system: SNB-19 CNS
U251 CNS = system: U251 CNS
IGROV1 ovarian = system: IGROV1 ovarian
SR leukemia = system: SR leukemia
HOP-92 NSCLC = system: HOP-92 NSCLC
ACHN renal = system: ACHN renal
A549 NSCLC = system: A549 NSCLC
HL-60(TB) leukemia = system: HL-60(TB) leukemia
SF-295 CNS = system: SF-295 CNS
SK-MEL-5 melanoma = system: SK-MEL-5 melanoma
786-0 renal = system: 786-0 renal
HCC-2998 colon = system: HCC-2998 colon
EKVX NSCLC = system: EKVX NSCLC
SN12C renal = system: SN12C renal
CAKI-1 renal = system: CAKI-1 renal
KM12 colon = system: KM12 colon
SF-539 CNS = system: SF-539 CNS
MDA-N = system: MDA-N
SK-MEL-28 melanoma = system: SK-MEL-28 melanoma
RPMI-8226 leukemia = system: RPMI-8226 leukemia
NCI-H226 lung = system: NCI-H226 lung
MDA-MB-435 = system: MDA-MB-435
OVCAR-8 ovarian = system: OVCAR-8 ovarian
NCI-H460 lung = system: NCI-H460 lung
HS 578T breast = system: HS 578T breast
A498 renal = system: A498 renal
MALME-3M melanoma = system: MALME-3M melanoma

Measured: TGI

CNC1C(O)C(NC)C2OC3(O)C(=O)CC(C)OC3OC2C1O (centres undefined)
not listed: A498 renal | MALME-3M melanoma
> 100 µM: all other assays above

Cc1c(C#N)c(N)[nH]c(=S)c1C#N
not listed: COLO 205 colon | M14 melanoma | SK-OV-3 ovarian | OVCAR-4 ovarian | NCI/ADR-RES ovarian | HOP-92 NSCLC | MDA-MB-435
> 100 µM: all other assays above

— PubChem BioAssay (NCI)
